Test results as given in paper PMC11267363, “Supramolecular Nanofibers Ameliorate Bleomycin‐Induced Pulmonary Fibrosis by Restoring Autophagy” (Advanced Science, 2024).

Legend:
[1] = test system: TRB3/p62 PPIs in lung tissue; experiment: Co-IP, western blot and q-PCR of lung tissues from bleomycin mice; format: in vivo; conditions: i.v.
Method: We attempted to elucidate the mechanism of Ac-GFFY-A2 peptide nanofibers in ameliorating bleomycin-induced lung fibrosis at the molecular level. The nanofibers were administered to the lung fibrosis mice model via intravenous (i.v.) injection, saline treatment as the control group. The mice were sacrificed on day 21 and lung tissues were harvested for the following detection. […] Those results confirmed the potential therapeutic efficacy of peptide nanofibers in pulmonary fibrosis at both the transcriptional and translational levels. […] Gene expression was determined relative to that of the endogenous reference gene (Gapdh) using the 2^-ΔΔCt method. […] The protein concentration was measured using BCA Protein Assay Kit (Thermo Scientific). […] The protein transferred PVDF membranes were incubated with following primary antibodies at 4°C overnight: Then the membranes were incubated with horseradish peroxidase (HRP)-conjugated secondary antibodies at room temperature for 1 h, and protein signals were detected using an enhanced chemiluminescence kit (Pierce). […] The co -precipitates were resolved using SDS-PAGE and detected with immunoblotting. […] Fluorescence imaging was performed using a IVIS Lumina II imaging (PerkinElmer, USA) at different time point post injection. […]

human TRB3 protein = target: T1, human TRB3 protein (Homo sapiens, UniProt Q96RU7); experiment: Microscale thermophoresis (MST) binding to TRB3; conditions: Monolith NT.115, recombinant human TRB3, read-out: binding constant (KD)
T1 construct: purchased Sino Biological 10731-H09B
T1 sequence (Q96RU7 1-358): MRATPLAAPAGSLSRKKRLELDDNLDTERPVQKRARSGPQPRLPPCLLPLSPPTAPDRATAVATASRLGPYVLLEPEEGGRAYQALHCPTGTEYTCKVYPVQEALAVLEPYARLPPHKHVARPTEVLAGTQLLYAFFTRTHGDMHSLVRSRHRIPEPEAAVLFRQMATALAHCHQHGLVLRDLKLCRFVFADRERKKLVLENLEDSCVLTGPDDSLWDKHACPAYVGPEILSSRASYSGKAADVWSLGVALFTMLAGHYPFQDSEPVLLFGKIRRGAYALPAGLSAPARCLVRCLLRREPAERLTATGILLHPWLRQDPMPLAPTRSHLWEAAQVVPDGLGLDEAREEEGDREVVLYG
Method: To determine the effects of the self‐assembly factor “Ac‐GFFY” on the secondary structure of the A2 peptide fragment, Circular dichroism (CD) and Fourier transform infrared (FTIR) measurements were performed. […] We subsequently assessed the binding affinity between Ac‐GFFY‐A2 or A2 peptides to the human TRB3 protein or bovine serum albumin (BSA) using microscale thermophoresis (MST) assay, with BSA serving as the control group. […] Therefore, we labeled the peptide with the fluorescence group 7‐nitro‐1,2,3‐benzoxadiazole (NBD) to determine the cellular uptake via flow cytometer. The NBD‐labeled peptide was incubated with both of normal and activated MRC‐5 cells for 4 h, respectively. […] Collectively, under the action of supramolecular self‐assembly, the peptide assemblies with stable secondary conformation can not only be effectively absorbed by MRC‐5 cells but also have the potential to interfere with TRB3/p62 PPIs.
HR‐MS (Varian QFT‐ESI) was used to characterize the molecular weight of compounds. TEM (JEM100CXII) was performed at the Tecnai G2 F20 system, operating at 100 kV. Circular dichroism (CD) spectrum was obtained by a BioLogic (MOS‐450) system. Dynamic light scattering was measured by a ZETAPALS/BI‐200SM (BROOKHAVEN) system. Confocal laser scanning microscopy (CLSM) was measured by Leica TCS SP‐5. Flow cytometry (BD, FACS) was used to detect the cellular uptake. […]

## Ac-GFFYGGWLTRLLQTK-OH [Ac-GFFY-A2]
[1]; day 21, versus saline treatment control group
  mRNA expression levels of Col 1, FN and α-SMA in lung tissues (q-PCR): significantly lower
[1]; lung tissues harvested on day 21
  TRB3/p62 interaction in lung tissue (co-IP): could disturb the interaction between TRB3 and p62 in lung tissue
Human TRB3 protein
  Kd: ~19.1 µM
